Assay results reported in PMC7217150, “Synthesis, Modification, and Biological Evaluation of a Library of Novel Water‐Soluble Thiopyridone‐Based Organometallic Complexes and Their Unexpected (Biological) Behavior” (Chemistry (Weinheim an Der Bergstrasse, Germany), 2020).
Where two headings read alike, the source gives them in different places.

Columns and labels:
CH1/PA‐1 [1] = assay: MTT cytotoxicity assay, monolayer culture; assay type: cell-based, human; conditions: CH1/PA‐1, MTT assay, exposure time 96 h, means ± SDs
SW480 [2] = assay: MTT cytotoxicity assay, monolayer culture; assay type: cell-based, human
A549 [3] = assay: MTT cytotoxicity assay, monolayer culture; assay type: cell-based, human; conditions: exposure time 96 h, means ± SDs
CH1/PA‐1 [4] = conditions: CH1/PA‐1 multicellular spheroids, 96 h drug exposure
Experimental: (§1) A549, CH1/PA‐1 and SW480 cells were grown in MEM supplemented with 10 % fetal calf serum (FCS; from Biowest), 1 mM sodium pyruvate, 4 mM L‐glutamine and 1 % v/v nonessential amino acids (from 100×solution) and L‐glutamine. HCT‐116 cells were maintained in McCoy's 5a medium supplemented with 10 % FCS and L‐glutamine. Adherent monolayer cultures were grown in 75 cm^2 flasks. For spheroid culture, A549, CH1/PA‐1 and HCT‐116 cells were harvested from culture flasks by trypsinization, resuspended in their respective supplemented medium and seeded in ultra‐low attachment round‐bottom 96‐well plates (Corning Costar) at a density of 500 viable cells per well. Plates were incubated for 96 h to allow spheroid formation prior to use for the tests. All cultures were incubated in a humidified incubator at 37 °C with 5 % CO2.
(§2) Cytotoxicity in multicellular spheroids was determined by the fluorimetric resazurin assay. […] After incubation for 96 h, 20 μL of a 440 μM resazurin sodium salt solution in PBS were added to each well, and the plates were incubated for further 16 h. Fluorescence was measured with a Synergy HT reader (BioTek) with an excitation wavelength of 530 nm and emission wavelength of 590 nm. For both assays, at least three independent experiments (or two in case of poor activity) were performed, each with triplicates per concentration level, and the 50 % inhibitory concentrations (IC50) relative to untreated controls were interpolated from concentration‐effect curves.

HCT‐116 = HCT‐116 multicellular spheroids, 96 h drug exposure
Experimental: as §1, §2

A549 [5] = conditions: A549 multicellular spheroids, 96 h drug exposure
Experimental: as §1, §2

[6] = pH 7.2
Experimental: Stock solutions containing the desired complex in DMSO (5 mM) were diluted with phosphate buffer (pH 7.2) to a final concentration of […] compound in 1 % DMSO/20 mM buffer and directly analyzed by four different isocratic UHPLC runs (Δ=5 %). The lipophilicity parameters logkw and lipophilicity indices φ0 were calculated according to literature.7, 37

SW480 cells = conditions: for Cellular accumulation: ICP‐MS, 2 h exposure, 50 μM
CH1/PA‐1 [7] = assay: Cell cycle distribution, flow cytometry with propidium iodide; assay type: cell-based, human; conditions: for Cell cycle distribution G1, % / Cell cycle distribution G2/M, % / Cell cycle distribution S, %: 24 h, mean ± SD; for Relative change in cell cycle distribution G1, % / Relative change in cell cycle distribution G2/M, % / Relative change in cell cycle distribution S, %: difference to untreated control
Method in brief: (§3)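 CH1/PA-1 and SW480 cells were allowed to attach for 24 h, then exposed continuously to compounds for 24 h at 37 °C. Nuclei were stained overnight at 4 °C with propidium iodide (50 μg mL^−1) in Triton/citrate buffer. 5×10^3 cells were analysed by flow cytometry, with G1/S/G2/M fractions fitted by the Watson Pragmatic model.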

SW480 [8] = assay: as above; assay type: cell-based, human; conditions: for Cell cycle distribution G1, % / Cell cycle distribution G2/M, % / Cell cycle distribution S, %: 24 h, mean ± SD; for Relative change in cell cycle distribution G1, % / Relative change in cell cycle distribution G2/M, % / Relative change in cell cycle distribution S, %: difference to untreated control; for decrease in G1 phase: SW480 cells
Method in brief: as §3

[9] = test system: human cancer cell lines CH1/PA‐1, SW480, A549; conditions: tested cancer cell lines
[10] = SW480, MTT assay, exposure time 96 h, means ± SDs

## CC1=C2[O][Rh+]([Cl])[S]=C2C=CN1C.Cc1c(C)c(C)[c-](C)c1C [Compound 5 a, Chlorido[1,2‐dimethyl‐3‐oxo‐κO‐pyridine‐4(1H)‐thionato‐κS](η^5‐1,2,3,4,5‐pentamethylcyclopentadienyl)rhodium(III)]
CH1/PA‐1 [1]
  IC50: 11 ± 2 µM
SW480 [2]; [10]
  IC50: 5.5 ± 1.1 µM
SW480 [2]; SW480, as listed in Table 3
  IC50: 5.54 ± 1.07 µM
A549 [3]
  IC50: 117 ± 19 µM
CH1/PA‐1 [4]
  IC50: 144 ± 7 µM
HCT‐116
  IC50: 140 ± 20 µM
A549 [5]
  IC50: 367 ± 24 µM
[6]
  φ0 (chromatographic lipophilicity index): 5.91
SW480 cells
  Cellular accumulation: 118±35 fg/cell
CH1/PA‐1 [7]; CH1/PA-1, 10 µM
  Cell cycle distribution G1, %: 28 ± 1%
  Cell cycle distribution G2/M, %: 28 ± 5%
  Cell cycle distribution S, %: 44 ± 5%
  Relative change in cell cycle distribution G1, %: -12%
  Relative change in cell cycle distribution G2/M, %: 4%
  Relative change in cell cycle distribution S, %: 8%
CH1/PA‐1 [7]; CH1/PA-1, 20 µM
  Cell cycle distribution G1, %: 27 ± 5%
  Cell cycle distribution G2/M, %: 32 ± 4%
  Cell cycle distribution S, %: 41 ± 5%
  Relative change in cell cycle distribution G1, %: -13%
  Relative change in cell cycle distribution G2/M, %: 8%
  Relative change in cell cycle distribution S, %: 5%
CH1/PA‐1 [7]; CH1/PA-1, 40 µM
  Cell cycle distribution G1, %: 26 ± 6%
  Cell cycle distribution G2/M, %: 31 ± 2%
  Cell cycle distribution S, %: 42 ± 1%
  Relative change in cell cycle distribution G1, %: -14%
  Relative change in cell cycle distribution G2/M, %: 7%
  Relative change in cell cycle distribution S, %: 6%
CH1/PA‐1 [7]; CH1/PA‐1 cells, 40 μM
  shift of cell cycle distribution towards S and G2/M phases in total: up to 14%
SW480 [8]; SW480, 5 µM
  Cell cycle distribution G1, %: 44 ± 1%
  Cell cycle distribution G2/M, %: 26 ± 2%
  Cell cycle distribution S, %: 30 ± 4%
  Relative change in cell cycle distribution G1, %: -4%
  Relative change in cell cycle distribution G2/M, %: 7%
  Relative change in cell cycle distribution S, %: -3%
SW480 [8]; SW480, 10 µM
  Cell cycle distribution G1, %: 38 ± 4%
  Cell cycle distribution G2/M, %: 20 ± 4%
  Cell cycle distribution S, %: 42 ± 1%
  Relative change in cell cycle distribution G1, %: -10%
  Relative change in cell cycle distribution G2/M, %: 1%
  Relative change in cell cycle distribution S, %: 9%
SW480 [8]; SW480, 20 µM
  Cell cycle distribution G1, %: 46 ± 3%
  Cell cycle distribution G2/M, %: 12 ± 1%
  Cell cycle distribution S, %: 42 ± 2%
  Relative change in cell cycle distribution G1, %: -2%
  Relative change in cell cycle distribution G2/M, %: -7%
  Relative change in cell cycle distribution S, %: 9%
SW480 [8]; 10 μM
  decrease in G1 phase: 10%

## Cc1c([O-])c(=S)ccn1Cc1ccccc1.Cc1ccc(C(C)C)cc1.[Cl-].[Ru+2] [Compound 3 c, Chlorido[1‐benzyl‐2‐methyl‐3‐(oxo‐κO)‐pyridine‐4(1H)‐thionato‐κS](η^6‐p‐cymene)ruthenium(II)]
CH1/PA‐1 [1]
  IC50: 1.04 ± 0.03 µM
SW480 [2]; [10]
  IC50: 3.1 ± 0.2 µM
SW480 [2]; SW480, as listed in Table 3
  IC50: 3.06 ± 0.2 µM
A549 [3]
  IC50: 1.3 ± 0.1 µM
[9]
  IC50 values, in words: low micromolar range
CH1/PA‐1 [4]
  IC50: 242 ± 11 µM
HCT‐116
  IC50: 211 ± 28 µM
A549 [5]
  IC50: 287 ± 3 µM
[6]
  φ0 (chromatographic lipophilicity index): 6.04
SW480 cells
  intracellular accumulation relative to 3 a, in words: seven times as high
  Cellular accumulation: 147±54 fg/cell
CH1/PA‐1 [7]; CH1/PA-1, 2.5 µM
  Cell cycle distribution G1, %: 30 ± 1%
  Cell cycle distribution G2/M, %: 23 ± 6%
  Cell cycle distribution S, %: 47 ± 8%
  Relative change in cell cycle distribution G1, %: -10%
  Relative change in cell cycle distribution G2/M, %: -1%
  Relative change in cell cycle distribution S, %: 11%
CH1/PA‐1 [7]; CH1/PA-1, 5 µM
  Cell cycle distribution G1, %: 27 ± 3%
  Cell cycle distribution G2/M, %: 30 ± 3%
  Cell cycle distribution S, %: 43 ± 3%
  Relative change in cell cycle distribution G1, %: -13%
  Relative change in cell cycle distribution G2/M, %: 6%
  Relative change in cell cycle distribution S, %: 7%
CH1/PA‐1 [7]; CH1/PA-1, 10 µM
  Cell cycle distribution G1, %: 24 ± 6%
  Cell cycle distribution G2/M, %: 30 ± 7%
  Cell cycle distribution S, %: 47 ± 4%
  Relative change in cell cycle distribution G1, %: -16%
  Relative change in cell cycle distribution G2/M, %: 6%
  Relative change in cell cycle distribution S, %: 11%
CH1/PA‐1 [7]; CH1/PA‐1 cells, 2.5 μM
  decrease in G1 phase: 10%
CH1/PA‐1 [7]; CH1/PA‐1 cells, 10 μM
  decrease in G1 phase: about 16%
SW480 [8]; SW480, 2.5 µM
  Cell cycle distribution G1, %: 45 ± 3%
  Cell cycle distribution G2/M, %: 17 ± 4%
  Cell cycle distribution S, %: 38 ± 6%
  Relative change in cell cycle distribution G1, %: -3%
  Relative change in cell cycle distribution G2/M, %: -2%
  Relative change in cell cycle distribution S, %: 5%
SW480 [8]; SW480, 5 µM
  Cell cycle distribution G1, %: 44 ± 2%
  Cell cycle distribution G2/M, %: 20 ± 3%
  Cell cycle distribution S, %: 36 ± 0%
  Relative change in cell cycle distribution G1, %: -4%
  Relative change in cell cycle distribution G2/M, %: 1%
  Relative change in cell cycle distribution S, %: 3%
SW480 [8]; SW480, 10 µM
  Cell cycle distribution G1, %: 48 ± 7%
  Cell cycle distribution G2/M, %: 21 ± 4%
  Cell cycle distribution S, %: 32 ± 7%
  Relative change in cell cycle distribution G1, %: 0%
  Relative change in cell cycle distribution G2/M, %: 2%
  Relative change in cell cycle distribution S, %: -1%
SW480 [8]; at applicable concentrations
  decrease in G1 phase: < 9%
